Values of other authors in patent US10085951B2, “Curcuminoid formulations and related methods of treatment” (DESIGNS FOR HEALTH, INC., priority 2014, dated 2018).

For COc1cc(/C=C/C(=O)CC(=O)/C=C/c2ccc(O)c(OC)c2)ccc1O [curcumin, 1,6-heptadiene-3,5-dione1,7-bis (4-hydroxy-3-methoxyphenyl)-(1E,6E)], the “Solubility in ethanol, dimethylsulfoxide and acetone” value is given as “soluble” and the “Solubility in water and ether” value is given as “practically insoluble”.
